Experimental data reported in PubChem BioAssay (NCI).
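Exposure lasted 48 hours, with cells grown in 96-well plates and compounds tested at five concentrations. Here, GI50 denotes the concentration required for 50% inhibition of growth. TGI: total growth inhibition.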

Assays:
Assay in all cases: NCI anticancer screen, dose series, 48 h
[1] = tested on: 786-0 renal
[2] = tested on: A498 renal
[3] = tested on: A549 NSCLC
[4] = tested on: ACHN renal
[5] = tested on: BT-549 breast
[6] = tested on: CAKI-1 renal
[7] = tested on: CCRF-CEM leukemia
[8] = tested on: COLO 205 colon
[9] = tested on: DU-145 prostate
[10] = tested on: HCC-2998 colon
[11] = tested on: HCT-116 colon
[12] = tested on: HCT-15 colon
[13] = tested on: HL-60(TB) leukemia
[14] = tested on: HOP-62 NSCLC
[15] = tested on: HOP-92 NSCLC
[16] = tested on: HS 578T breast
[17] = tested on: HT29 colon
[18] = tested on: IGROV1 ovarian
[19] = tested on: K-562 leukemia
[20] = tested on: KM12 colon
[21] = tested on: LOX IMVI melanoma
[22] = tested on: M14 melanoma
[23] = tested on: MALME-3M melanoma
[24] = tested on: MCF7 breast
[25] = tested on: MDA-MB-231 breast
[26] = tested on: MDA-MB-435
[27] = tested on: MOLT-4 leukemia
[28] = tested on: NCI-H226 lung
[29] = tested on: NCI-H23 lung
[30] = tested on: NCI-H460 lung
[31] = tested on: NCI-H522 lung
[32] = tested on: NCI/ADR-RES ovarian
[33] = tested on: OVCAR-3 ovarian
[34] = tested on: OVCAR-4 ovarian
[35] = tested on: OVCAR-5 ovarian
[36] = tested on: OVCAR-8 ovarian
[37] = tested on: PC-3 prostate
[38] = tested on: RPMI-8226 leukemia
[39] = tested on: SF-268 CNS
[40] = tested on: SF-295 CNS
[41] = tested on: SF-539 CNS
[42] = tested on: SK-MEL-2 melanoma
[43] = tested on: SK-MEL-28 melanoma
[44] = tested on: SK-MEL-5 melanoma
[45] = tested on: SK-OV-3 ovarian
[46] = tested on: SN12C renal
[47] = tested on: SNB-19 CNS
[48] = tested on: SNB-75 CNS
[49] = tested on: SR leukemia
[50] = tested on: SW-620 colon
[51] = tested on: T-47D breast
[52] = tested on: TK-10 renal
[53] = tested on: UACC-257 melanoma
[54] = tested on: UACC-62 melanoma
[55] = tested on: UO-31 renal

Structure (SMILES): O=C(NCCCN1CCC(N2CCCCC2)CC1)C1=Cc2cc(Br)ccc2OC1
- GI50 [1]: 11.2 µM
- TGI [1]: 25.8 µM
- GI50 [2]: 3.88 µM
- TGI [2]: 18.7 µM
- GI50 [3]: 5.66 µM
- TGI [3]: 20.1 µM
- GI50 [4]: 10.2 µM
- TGI [4]: 27 µM
- GI50 [5]: 13.9 µM
- TGI [5]: 33 µM
- GI50 [6]: 2460 nM
- TGI [6]: 6.09 µM
- GI50 [7]: 4.24 µM
- TGI [7]: 20.2 µM
- GI50 [8]: 2160 nM
- TGI [8]: 4.29 µM
- GI50 [9]: 15.5 µM
- TGI [9]: 30.4 µM
- GI50 [10]: 13.5 µM
- TGI [10]: 27.2 µM
- GI50 [11]: 5.29 µM
- TGI [11]: 21.8 µM
- GI50 [12]: 3.47 µM
- TGI [12]: 17.1 µM
- GI50 [13]: 4.94 µM
- TGI [13]: 19.3 µM
- GI50 [14]: 13.8 µM
- TGI [14]: 27.2 µM
- GI50 [15]: 3.68 µM
- TGI [15]: 19.8 µM
- GI50 [16]: 12.2 µM
- TGI [16]: 33.4 µM
- GI50 [17]: 3.21 µM
- TGI [17]: 12.5 µM
- GI50 [18]: 15.9 µM
- TGI [18]: 39.4 µM
- GI50 [19]: 1980 nM
- TGI [19]: 4.63 µM
- GI50 [20]: 13.7 µM
- TGI [20]: 27.8 µM
- GI50 [21]: 2590 nM
- TGI [21]: 5.73 µM
- GI50 [22]: 2220 nM
- TGI [22]: 4.71 µM
- GI50 [23]: 2110 nM
- TGI [23]: 3.89 µM
- GI50 [24]: 4.45 µM
- TGI [24]: 17.1 µM
- GI50 [25]: 3.62 µM
- TGI [25]: 13.8 µM
- GI50 [26]: 1690 nM
- TGI [26]: 3.55 µM
- GI50 [27]: 7.41 µM
- TGI [27]: 26.3 µM
- GI50 [28]: 16.9 µM
- TGI [28]: 34.5 µM
- GI50 [29]: 16.9 µM
- TGI [29]: 36.2 µM
- GI50 [30]: 8.43 µM
- TGI [30]: 23.6 µM
- GI50 [31]: 2320 nM
- TGI [31]: 6.12 µM
- GI50 [32]: 19.1 µM
- TGI [32]: 52.2 µM
- GI50 [33]: 12.3 µM
- TGI [33]: 26.8 µM
- GI50 [34]: 10 µM
- TGI [34]: 32 µM
- GI50 [35]: 19.9 µM
- TGI [35]: 70.2 µM
- GI50 [36]: 4.82 µM
- TGI [36]: 26.9 µM
- GI50 [37]: 11.7 µM
- TGI [37]: 26.8 µM
- GI50 [38]: 4.54 µM
- TGI [38]: 22.4 µM
- GI50 [39]: 3.51 µM
- TGI [39]: 13 µM
- GI50 [40]: 8.58 µM
- TGI [40]: 24.8 µM
- GI50 [41]: 2090 nM
- TGI [41]: 5.04 µM
- GI50 [42]: 8.14 µM
- TGI [42]: 22.1 µM
- GI50 [43]: 1830 nM
- TGI [43]: 3.54 µM
- GI50 [44]: 1890 nM
- TGI [44]: 3.61 µM
- GI50 [45]: 16.2 µM
- TGI [45]: 30.9 µM
- GI50 [46]: 10.4 µM
- TGI [46]: 24.1 µM
- GI50 [47]: 14.2 µM
- TGI [47]: 31.3 µM
- GI50 [48]: 10.9 µM
- TGI [48]: 23.3 µM
- GI50 [49]: 2500 nM
- TGI [49]: 6.15 µM
- GI50 [50]: 5.16 µM
- TGI [50]: 19 µM
- GI50 [51]: 2040 nM
- TGI [51]: 4.98 µM
- GI50 [52]: 14.3 µM
- TGI [52]: 27.7 µM
- GI50 [53]: 1900 nM
- TGI [53]: 3.89 µM
- GI50 [54]: 1830 nM
- TGI [54]: 3.49 µM
- GI50 [55]: 6.71 µM
- TGI [55]: 20.4 µM
